Measured values as given in patent publication US12637440B2, “Amide derivative useful as diacylglycerol acyltransferase 2 inhibitor, and use thereof” (LG CHEM, LTD., priority 2019, dated 2026).

Target: T1, Recombinant human DGAT2 protein (Homo sapiens, UniProt Q96PD7)
T1 construct: FLAG (DYKDDDDK); (N); made in house; host or cells: Sf-21 insect cells (BacPAK baculovirus system); used as a membrane preparation
T1 sequence (Q96PD7 1-388): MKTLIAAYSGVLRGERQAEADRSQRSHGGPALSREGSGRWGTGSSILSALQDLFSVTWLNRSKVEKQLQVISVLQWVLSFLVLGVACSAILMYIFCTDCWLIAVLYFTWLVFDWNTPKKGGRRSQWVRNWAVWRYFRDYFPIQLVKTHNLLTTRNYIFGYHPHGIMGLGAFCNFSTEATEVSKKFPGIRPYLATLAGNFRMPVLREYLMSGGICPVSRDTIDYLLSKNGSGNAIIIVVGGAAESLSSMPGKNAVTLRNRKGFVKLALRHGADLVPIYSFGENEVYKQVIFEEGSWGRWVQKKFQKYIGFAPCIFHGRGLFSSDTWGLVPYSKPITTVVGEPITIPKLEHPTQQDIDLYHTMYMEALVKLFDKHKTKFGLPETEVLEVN
Experiment: Measurement of inhibitory effect against DGAT2 enzyme activity (SPA, Phospholipid FlashPlate, [14C]-TG production)
Type: biochemical
Settings: concentration inhibiting [14C]-labeled triacyl glycerol (TG) production by 50%; 2 μg DGAT2-membrane protein from Sf-21 cells, 37° C.
Outline: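 Membranes from Sf-21 cells expressing human DGAT2 (2 μg) preincubated 20 min at 37 °C with compound (3 nM–10 μM, 1% DMSO) in HEPES/MgCl2/BSA with 50 μM 1,2-dioleoyl glycerol, then 1 μM [14C]oleoyl-CoA for 15 min. [14C]-TG measured by SPA FlashPlate; inhibition as % of untreated control.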

SMILES | IC50 [nM]
CCOc1ccccc1O[C@@H]1CCCN(c2cncc(NC(=O)c3ccccc3)n2)C1 [Example 6, (R)—N-(6-(3-(2-ethoxyphenoxy)piperidin-1-yl)pyrazin-2-yl)benzamide] | 53
CCOc1ccccc1O[C@@H]1CCCN(c2cncc(NC(=O)CCc3cccc(C(=O)O)c3)n2)C1 [Example 48, (R)-3-(3-((6-(3-(2-ethoxyphenoxy)piperidin-1-yl)pyrazin-2-yl)amino)-3-oxopropyl)benzoic acid] | 710
CCOc1ccccc1O[C@@H]1CCCN(c2cncc(NC(=O)C(C)(C)c3ccc(CC(C)(C)C(=O)O)cc3)n2)C1 [Example 110, (R)-3-(4-(1-((6-(3-(2-ethoxyphenoxy)piperidin-1-yl)pyrazin-2-yl)amino)-2-methyl-1-oxopropan-2-yl)phenyl)-2,2-dimethylpropanoic acid] | 76
CCOc1ccccc1O[C@@H]1CCCN(c2cncc(NC(=O)C(C)(C)c3ccccc3)n2)C1 [Example 31, (R)—N-(6-(3-(2-ethoxyphenoxy)piperidin-1-yl)pyrazin-2-yl)-2-methyl-2-phenylpropanamide] | 180
CCOc1ccccc1O[C@@H]1CCCN(c2cncc(NC(=O)COc3ccc(C(C)C(=O)O)cc3)n2)C1 (stereo partly drawn) [Example 101, 2-(4-(2-((6-((R)-3-(2-ethoxyphenoxy)piperidin-1-yl)pyrazin-2-yl)amino)-2-oxoethoxy)phenyl)propanoic acid] | 320
CCOc1ccccc1O[C@@H]1CCCN(c2cncc(NC(=O)c3ccc(C(C)(C)C(=O)O)cc3)n2)C1 [Example 13, (R)-2-(4-((6-(3-(2-ethoxyphenoxy)piperidin-1-yl)pyrazin-2-yl)carbamoyl)phenyl)-2-methylpropanoic acid] | 9100
CCOc1ccccc1O[C@@H]1CCCN(c2cncc(NC(=O)C(C)(C)c3ccc(C(C)(C)C(=O)O)cc3)n2)C1 [Example 39, (R)-2-(4-(1-((6-(3-(2-ethoxyphenoxy)piperidin-1-yl)pyrazin-2-yl)amino)-2-methyl-1-oxopropan-2-yl)phenyl)-2-methylpropanoic acid] | 770
CCOc1cccnc1O[C@@H]1CCCN(c2ccnc(NC(=O)Cc3ccc(CC(C)(C)C(=O)O)cc3)n2)C1 [Example 114, (R)-3-(4-(2-((4-(3-((3-ethoxypyridin-2-yl)oxy)piperidin-1-yl)pyrimidin-2-yl)amino)-2-oxoethyl)phenyl)-2,2-dimethylpropanoic acid] | 140
CCOc1ccccc1O[C@@H]1CCCN(c2cccc(NC(=O)Cc3ccc(CC(C)(C)C(=O)O)cc3)n2)C1 [Example 71] | 250
CCOc1ccccc1O[C@@H]1CCCN(c2cncc(NC(=O)Cc3ccc(OCCCC(=O)O)cc3)n2)C1 [Example 37, (R)-4-(4-(2-((6-(3-(2-ethoxyphenoxy)piperidin-1-yl)pyrazin-2-yl)amino)-2-oxoethyl)phenoxy)butanoic acid] | 460
CCOc1ccccc1O[C@@H]1CCCN(c2cncc(NC(=O)Cc3ccc(C[C@@H](C)C(=O)O)cc3)n2)C1 [Example 63] | 140
CCOc1cccnc1O[C@@H]1CCCN(c2cncc(NC(=O)Cc3ccc(CC(C)(C)C(=O)O)cc3)n2)C1 [Example 116, (R)-3-(4-(2-((6-(3-((3-ethoxypyridin-2-yl)oxy)piperidin-1-yl)pyrazin-2-yl)amino)-2-oxoethyl)phenyl)-2,2-dimethylpropanoic acid] | 38
CCOc1cccnc1O[C@@H]1CCCN(c2nccc(NC(=O)Cc3ccc(CC(C)(C)C(=O)O)cc3)n2)C1 [Example 115, (R)-3-(4-(2-((2-(3-((3-ethoxypyridin-2-yl)oxy)piperidin-1-yl)pyrimidin-4-yl)amino)-2-oxoethyl)phenyl)-2,2-dimethylpropanoic acid] | 140
CCOc1ccccc1O[C@@H]1CCCN(c2cncc(NC(=O)C3(C)CCNC3)n2)C1 (stereo partly drawn) [Example 88, N-(6-((R)-3-(2-ethoxyphenoxy)piperidin-1-yl)pyrazin-2-yl)-3-methylpyrrolidine-3-carboxamide] | 6200
CCOc1ccccc1O[C@@H]1CCCN(c2cncc(NC(=O)C3CCN(c4ncc(C(=O)O)cn4)CC3)n2)C1 [Example 75, (R)-2-(4-((6-(3-(2-ethoxyphenoxy)piperidin-1-yl)pyrazin-2-yl)carbamoyl)piperidin-1-yl)pyrimidine-5-carboxylic acid] | 1200
CCOc1ccccc1O[C@@H]1CCCN(c2cncc(NC(=O)CCc3ccccc3)n2)C1 [Example 29, (R)—N-(6-(3-(2-ethoxyphenoxy)piperidin-1-yl)pyrazin-2-yl)-3-phenylpropanamide] | 18
CCOc1ccccc1O[C@@H]1CCCN(c2cncc(NC(=O)c3ccc(Oc4ccc(C(=O)O)cc4)cc3)n2)C1 [Example 62, (R)-4-(4-((6-(3-(2-ethoxyphenoxy)piperidin-1-yl)pyrazin-2-yl)carbamoyl)phenoxy)benzoic acid] | 2100

The remaining molecules from weak to strong by IC50, led by results:

IC50 [nM] | SMILES
~15000 | CCOc1ccccc1O[C@@H]1CCCN(c2cncc(NC(=O)CCC(=O)O)n2)C1 [Example 19, (R)-4-((6-(3-(2-ethoxyphenoxy)piperidin-1-yl)pyrazin-2-yl)amino)-4-oxobutanoic acid]
6100 | CCOc1ccccc1O[C@@H]1CCCN(c2cncc(NC(=O)Nc3ccc(CC(=O)O)cc3)n2)C1 [Example 67, (R)-2-(4-(3-(6-(3-(2-ethoxyphenoxy)piperidin-1-yl)pyrazin-2-yl)ureido)phenyl)acetic acid]
4000 | CCOc1ccccc1O[C@@H]1CCCN(c2cncc(NC(=O)C3CCC[C@H]3C(=O)O)n2)C1 (stereo partly drawn) [Example 20, (1R)-2-((6-((R)-3-(2-ethoxyphenoxy)piperidin-1-yl)pyrazin-2-yl)carbamoyl)cyclopentane-1-carboxylic acid]
1300 | C=C(CNc1ccc(CCC(=O)O)cc1)C(=O)Nc1cncc(N2CCC[C@@H](Oc3ccccc3OCC)C2)n1 [Example 74, (R)-3-(4-((2-((6-(3-(2-ethoxyphenoxy)piperidin-1-yl)pyrazin-2-yl)carbamoyl)allyl)amino)phenyl)propanoic acid]
970 | CCOc1ccccc1O[C@@H]1CCCN(c2cncc(NC(=O)Cc3ccc(C(C)(C)C(=O)O)cc3)n2)C1 [Example 69, (R)-2-(4-(2-((6-(3-(2-ethoxyphenoxy)piperidin-1-yl)pyrazin-2-yl)amino)-2-oxoethyl)phenyl)-2-methylpropanoic acid]
930 | CCOc1ccccc1O[C@@H]1CCCN(c2cncc(NC(=O)C3CCN(c4ccc(CC(=O)O)cc4)CC3)n2)C1 [Example 79, (R)-2-(4-(4-((6-(3-(2-ethoxyphenoxy)piperidin-1-yl)pyrazin-2-yl)carbamoyl)piperidin-1-yl)phenyl)acetic acid]
540 | CCOc1ccccc1O[C@@H]1CCCN(c2cncc(NC(=O)c3cccc(-c4cccc(CC(C)(C)C(=O)O)c4)c3)n2)C1 [Example 129, (R)-3-(3′-((6-(3-(2-ethoxyphenoxy)piperidin-1-yl)pyrazin-2-yl)carbamoyl)-[1,1′-biphenyl]-3-yl)-2,2-dimethylpropanoic acid]
510 | CCOc1ccccc1O[C@@H]1CCCN(c2cncc(NC(=O)CCc3ccc(C(=O)O)c(OC)c3)n2)C1 [Example 46, (R)-4-(3-((6-(3-(2-ethoxyphenoxy)piperidin-1-yl)pyrazin-2-yl)amino)-3-oxopropyl)-2-methoxybenzoic acid]
410 | CCOc1ccccc1O[C@@H]1CCCN(c2ccnc(NC(=O)C(C)(C)c3ccc(CC(C)(C)C(=O)O)cc3)n2)C1 [Example 77, (R)-3-(4-(1-((4-(3-(2-ethoxyphenoxy)piperidin-1-yl)pyrimidin-2-yl)amino)-2-methyl-1-oxopropan-2-yl)phenyl)-2,2-dimethylpropanoic acid]
200 | CCOc1ccccc1O[C@@H]1CCCN(c2cncc(NC(=O)Cc3ccc(OC(C)(C)C(=O)O)cc3)n2)C1 [Example 38]
98 | CCOc1ccccc1O[C@@H]1CCCN(c2cncc(NC(=O)/C=C/C34CCC(C(=O)O)(CC3)CC4)n2)C1 [Example 121, (R,E)-4-(3-((6-(3-(2-ethoxyphenoxy)piperidin-1-yl)pyrazin-2-yl)amino)-3-oxoprop-1-en-1-yl)bicyclo[2.2.2]octane-1-carboxylic acid]
83 | CCOc1ccccc1O[C@@H]1CCCN(c2cncc(NC(=O)CCc3cccc(CC(C)(C)C(=O)O)c3)n2)C1 [Example 127, (R)-3-(3-(3-((6-(3-(2-ethoxyphenoxy)piperidin-1-yl)pyrazin-2-yl)amino)-3-oxopropyl)phenyl)-2,2-dimethylpropanoic acid]
78 | CCOc1cccnc1O[C@@H]1CCCN(c2cncc(NC(=O)CCc3ccc(OC(C)(C)C(=O)O)cc3)n2)C1 [Example 108, (R)-2-(4-(3-((6-(3-((3-ethoxypyridin-2-yl)oxy)piperidin-1-yl)pyrazin-2-yl)amino)-3-oxopropyl)phenoxy)-2-methylpropanoic acid]
66 | CCOc1ccccc1O[C@@H]1CCCN(c2cncc(NC(=O)CCc3ccc(C4(C(=O)O)CC4)cc3)n2)C1 [Example 52, (R)-1-(4-(3-((6-(3-(2-ethoxyphenoxy)piperidin-1-yl)pyrazin-2-yl)amino)-3-oxopropyl)phenyl)cyclopropane-1-carboxylic acid]
9.6 | CCOc1ccccc1O[C@@H]1CCCN(c2cncc(NC(=O)CCc3ccc(CC(N)=O)cc3)n2)C1 [Example 50]
